Source: patent US6608086B2, “Dihydropyridines and new uses thereof” (Synaptic Pharmaceutical Corporation, priority 1993, dated 2003)
Where a name gives a salt, the structure may show the parent alone. Read-outs that look alike come from different tables or passages of the source.

Legend:
α2B receptor = biological target: T1, α2B receptor (Homo sapiens, UniProt P18089); assay: Competition binding, [3H]rauwolscine, human α2B receptor
T1 construct: host or cells: LM(tk-) cells, line L-NGC-α2B
T1 sequence (P18089 1-450): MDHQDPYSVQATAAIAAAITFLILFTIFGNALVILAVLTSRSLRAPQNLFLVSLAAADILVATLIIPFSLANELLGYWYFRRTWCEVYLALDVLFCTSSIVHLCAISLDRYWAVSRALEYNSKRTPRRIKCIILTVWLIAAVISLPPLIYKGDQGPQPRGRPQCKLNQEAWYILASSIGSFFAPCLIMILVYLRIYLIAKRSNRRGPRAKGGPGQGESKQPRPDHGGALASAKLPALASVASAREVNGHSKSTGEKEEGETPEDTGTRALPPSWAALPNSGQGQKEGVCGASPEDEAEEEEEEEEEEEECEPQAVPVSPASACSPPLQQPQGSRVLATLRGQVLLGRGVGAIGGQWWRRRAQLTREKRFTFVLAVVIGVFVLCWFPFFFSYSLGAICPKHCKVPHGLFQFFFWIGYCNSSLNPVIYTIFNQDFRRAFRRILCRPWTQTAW
Summary of the method: (§1)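 LM(tk−) lysates, stable α2A/α2B/α2C transfectants; 25 mM glycylglycine pH 7.6 (RT). [3H]rauwolscine 0.5 nM, equilibrium competition; NSB 10 μM phentolamine. GF/B filtration, cell harvester.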

[1] = biological target: T2, α1B Human Adrenergic Receptor (Homo sapiens, UniProt P35368); assay: Radioligand binding, [3H]prazosin, cloned human α1B adrenergic receptor
T2 construct: The entire coding region of α1B (1563 bp); expressed in transfected cells
T2 sequence (P35368 1-520): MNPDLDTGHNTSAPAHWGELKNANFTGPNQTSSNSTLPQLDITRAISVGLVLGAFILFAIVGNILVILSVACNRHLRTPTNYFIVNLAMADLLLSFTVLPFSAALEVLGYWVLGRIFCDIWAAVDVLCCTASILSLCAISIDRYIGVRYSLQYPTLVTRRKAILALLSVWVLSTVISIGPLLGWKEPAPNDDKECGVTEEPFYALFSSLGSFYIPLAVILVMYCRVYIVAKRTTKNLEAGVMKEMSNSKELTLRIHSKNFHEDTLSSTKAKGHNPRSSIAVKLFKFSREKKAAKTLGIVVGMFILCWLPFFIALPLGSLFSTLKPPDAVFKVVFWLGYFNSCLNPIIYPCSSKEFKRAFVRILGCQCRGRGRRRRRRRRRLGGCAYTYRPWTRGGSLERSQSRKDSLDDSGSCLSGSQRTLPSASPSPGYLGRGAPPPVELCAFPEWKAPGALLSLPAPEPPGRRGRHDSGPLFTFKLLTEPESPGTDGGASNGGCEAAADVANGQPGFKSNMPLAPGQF
Summary of the method: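 Membranes from stably transfected LM(tk−) cells, resuspended in 50 mM Tris-HCl, 1 mM MgCl2, 0.1% ascorbic acid, pH 7.5, were incubated with 0.5 nM [3H]prazosin for 20 min at 37° C. Nonspecific binding defined with 10 μM phentolamine; bound ligand separated by GF/B filtration.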

L-type calcium channel = biological target: T3, L-type calcium channel (Rattus norvegicus, UniProt P22002); assay: Competition binding of [3H]nitrendipine to membrane fragments of rat cardiac muscle
T3 construct: membrane fragments of rat cardiac muscle; from tissue; host or cells: rat cardiac muscle membranes
T3 sequence (P22002 whole entry, other chains not shown, the tested form may be a part): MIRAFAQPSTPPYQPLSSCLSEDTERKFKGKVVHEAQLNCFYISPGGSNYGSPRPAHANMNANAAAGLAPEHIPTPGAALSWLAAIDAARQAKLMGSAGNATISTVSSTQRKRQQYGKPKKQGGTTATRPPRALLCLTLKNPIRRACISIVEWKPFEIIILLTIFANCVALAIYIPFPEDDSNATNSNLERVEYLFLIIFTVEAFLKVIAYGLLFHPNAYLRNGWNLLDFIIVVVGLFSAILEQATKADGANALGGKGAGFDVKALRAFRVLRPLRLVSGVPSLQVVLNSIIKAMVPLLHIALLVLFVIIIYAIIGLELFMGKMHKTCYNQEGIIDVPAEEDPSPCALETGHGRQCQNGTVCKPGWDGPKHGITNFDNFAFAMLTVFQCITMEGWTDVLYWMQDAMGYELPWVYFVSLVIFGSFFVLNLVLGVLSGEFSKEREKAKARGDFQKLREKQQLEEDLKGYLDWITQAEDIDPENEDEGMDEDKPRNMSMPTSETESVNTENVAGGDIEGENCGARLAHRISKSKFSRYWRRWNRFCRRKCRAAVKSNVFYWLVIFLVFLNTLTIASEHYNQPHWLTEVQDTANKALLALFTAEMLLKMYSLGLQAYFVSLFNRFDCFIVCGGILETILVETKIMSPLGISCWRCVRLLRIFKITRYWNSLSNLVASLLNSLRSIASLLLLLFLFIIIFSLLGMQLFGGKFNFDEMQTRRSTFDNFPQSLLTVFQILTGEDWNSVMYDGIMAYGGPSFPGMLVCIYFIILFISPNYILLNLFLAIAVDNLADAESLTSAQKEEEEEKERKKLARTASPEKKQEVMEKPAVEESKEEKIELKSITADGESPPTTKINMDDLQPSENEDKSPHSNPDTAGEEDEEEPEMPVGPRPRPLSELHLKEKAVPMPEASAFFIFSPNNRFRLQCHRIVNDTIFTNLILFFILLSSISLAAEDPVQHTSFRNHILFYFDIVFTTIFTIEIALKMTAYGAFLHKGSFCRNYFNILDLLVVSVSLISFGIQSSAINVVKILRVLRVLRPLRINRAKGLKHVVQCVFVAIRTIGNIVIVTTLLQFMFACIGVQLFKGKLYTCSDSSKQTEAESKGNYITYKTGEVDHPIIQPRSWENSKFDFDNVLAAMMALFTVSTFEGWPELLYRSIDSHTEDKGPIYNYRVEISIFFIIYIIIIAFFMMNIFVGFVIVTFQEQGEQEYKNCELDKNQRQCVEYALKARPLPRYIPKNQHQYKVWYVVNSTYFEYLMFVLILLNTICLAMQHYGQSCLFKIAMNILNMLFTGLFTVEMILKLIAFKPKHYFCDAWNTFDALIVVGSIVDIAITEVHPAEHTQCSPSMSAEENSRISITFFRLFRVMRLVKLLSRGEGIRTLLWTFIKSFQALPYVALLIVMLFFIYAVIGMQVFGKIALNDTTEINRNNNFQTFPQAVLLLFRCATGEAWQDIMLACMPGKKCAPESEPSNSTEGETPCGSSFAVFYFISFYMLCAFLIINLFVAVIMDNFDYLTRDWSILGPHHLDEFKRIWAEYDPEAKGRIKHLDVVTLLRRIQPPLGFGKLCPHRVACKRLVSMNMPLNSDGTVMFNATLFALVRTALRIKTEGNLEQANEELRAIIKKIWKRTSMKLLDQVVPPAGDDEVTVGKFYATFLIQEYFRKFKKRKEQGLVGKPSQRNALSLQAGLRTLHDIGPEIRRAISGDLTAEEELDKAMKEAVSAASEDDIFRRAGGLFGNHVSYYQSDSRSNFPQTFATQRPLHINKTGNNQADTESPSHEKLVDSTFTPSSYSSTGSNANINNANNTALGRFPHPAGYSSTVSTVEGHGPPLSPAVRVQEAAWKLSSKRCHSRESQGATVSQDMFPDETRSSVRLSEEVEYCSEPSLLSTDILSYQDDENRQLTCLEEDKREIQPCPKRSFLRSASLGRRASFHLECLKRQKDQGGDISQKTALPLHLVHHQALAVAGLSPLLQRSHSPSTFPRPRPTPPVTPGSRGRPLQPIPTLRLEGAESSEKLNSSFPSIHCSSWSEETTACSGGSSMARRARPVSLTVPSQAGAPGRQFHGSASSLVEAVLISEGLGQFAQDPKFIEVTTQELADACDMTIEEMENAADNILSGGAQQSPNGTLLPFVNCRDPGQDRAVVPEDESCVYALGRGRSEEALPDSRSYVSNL
T3 sequence (P54290 25-944 partner limits assumed, other chains not shown): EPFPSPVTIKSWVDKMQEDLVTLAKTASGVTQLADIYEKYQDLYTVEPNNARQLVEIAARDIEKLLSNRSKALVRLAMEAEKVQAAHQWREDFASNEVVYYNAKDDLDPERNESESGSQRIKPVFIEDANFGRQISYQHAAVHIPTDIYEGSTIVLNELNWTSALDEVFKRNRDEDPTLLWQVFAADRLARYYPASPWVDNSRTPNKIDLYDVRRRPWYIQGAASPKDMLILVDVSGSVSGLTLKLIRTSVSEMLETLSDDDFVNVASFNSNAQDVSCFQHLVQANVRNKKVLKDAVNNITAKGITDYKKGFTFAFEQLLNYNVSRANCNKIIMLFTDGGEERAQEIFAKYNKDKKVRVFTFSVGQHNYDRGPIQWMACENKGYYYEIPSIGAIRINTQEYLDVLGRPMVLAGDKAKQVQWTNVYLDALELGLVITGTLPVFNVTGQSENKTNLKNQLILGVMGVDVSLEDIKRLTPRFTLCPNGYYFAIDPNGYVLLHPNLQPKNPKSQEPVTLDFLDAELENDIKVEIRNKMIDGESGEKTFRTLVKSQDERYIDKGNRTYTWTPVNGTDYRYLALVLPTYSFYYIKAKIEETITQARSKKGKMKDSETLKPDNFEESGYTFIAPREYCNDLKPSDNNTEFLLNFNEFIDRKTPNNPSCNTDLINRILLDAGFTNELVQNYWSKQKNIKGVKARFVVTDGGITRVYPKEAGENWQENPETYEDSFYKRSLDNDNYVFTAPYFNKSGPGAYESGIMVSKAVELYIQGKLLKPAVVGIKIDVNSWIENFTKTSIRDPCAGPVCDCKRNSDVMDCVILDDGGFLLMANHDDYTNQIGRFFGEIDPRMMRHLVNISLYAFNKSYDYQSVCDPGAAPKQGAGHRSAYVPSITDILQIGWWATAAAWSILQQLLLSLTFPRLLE
T3 sequence (P54290 945-1091 partner limits assumed, other chains not shown): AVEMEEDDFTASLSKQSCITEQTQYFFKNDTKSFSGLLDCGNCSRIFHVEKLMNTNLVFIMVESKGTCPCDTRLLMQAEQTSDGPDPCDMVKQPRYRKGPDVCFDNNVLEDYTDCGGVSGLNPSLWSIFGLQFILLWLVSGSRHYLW

α2A receptor = biological target: T4, α2A receptor (Homo sapiens, UniProt P08913); assay: Competition binding, [3H]rauwolscine, human α2A receptor
T4 construct: host or cells: LM(tk-) cells, line L-α2A
T4 sequence (P08913 1-465): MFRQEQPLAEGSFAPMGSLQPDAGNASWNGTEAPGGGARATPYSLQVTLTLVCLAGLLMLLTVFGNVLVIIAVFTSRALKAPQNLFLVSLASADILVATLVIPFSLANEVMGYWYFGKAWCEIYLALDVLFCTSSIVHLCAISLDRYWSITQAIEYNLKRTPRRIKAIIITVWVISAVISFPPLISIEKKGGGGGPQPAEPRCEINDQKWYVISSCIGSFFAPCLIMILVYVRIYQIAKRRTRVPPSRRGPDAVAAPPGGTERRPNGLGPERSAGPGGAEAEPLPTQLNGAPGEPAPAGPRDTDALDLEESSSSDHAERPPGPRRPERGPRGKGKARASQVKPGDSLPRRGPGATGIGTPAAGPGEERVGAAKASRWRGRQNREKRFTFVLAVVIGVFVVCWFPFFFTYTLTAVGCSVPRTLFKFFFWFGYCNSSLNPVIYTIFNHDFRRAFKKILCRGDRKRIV
Summary of the method: as §1

[2] = [3H]rauwolscine, LM(tk-) cell line L-NGC-α2B, SEM and n in lines below, read-out: pKi alpha-2 2b (converted)
[3] = cloned human receptor in LM(tk-) cell membranes, SEM and n in lines below, read-out: pKi alpha-1 1b (converted)
[4] = [3H]nitrendipine, rat cardiac muscle membranes, SEM and n in lines below, read-out: pKi Ca (converted)
[5] = [3H]rauwolscine, LM(tk-) cell line L-α2A, SEM and n in lines below, read-out: pKi alpha-2 2a (converted)
[6] = [3H]rauwolscine, LM(tk-) cell line L-NGC-α2B, SEM and n in lines below
[7] = cloned human receptor in LM(tk-) cell membranes, SEM and n in lines below
[8] = [3H]rauwolscine, LM(tk-) cell line L-α2A, SEM and n in lines below
[9] = [3H]rauwolscine, human α2B receptor, LM(tk−) cells
[10] = cloned human α1B receptor, LM(tk−) cell membranes
[11] = [3H]nitrendipine, rat cardiac muscle membrane fragments, L-type calcium channel
[12] = [3H]rauwolscine, human α2A receptor, LM(tk−) cells
[13] = [3H]nitrendipine, rat cardiac muscle membranes, SEM and n in lines below

Structure (SMILES): COC(=O)C1=C(C)NC(C)=C(C(=O)NCCCN2CCc3cc(OC)c(OC)cc3C2)C1c1ccc([N+](=O)[O-])cc1 (stereo not shown) [Example 57, 1,4-Dihydro-3-methoxycarbonyl-5-{N-[3-(1,2,3,4-tetrahydro-6,7-dimethoxyisoquinolin-2-yl)propyl]}carboxamido-2,6-dimethyl-4-(4-nitrophenyl)pyridine hydrochloride hydrate]
- Ki (α2B receptor; [2]): 1.86 µM
- Ki [1, 3]: 1.23 µM
- Ki (L-type calcium channel; [4]): 1000 µM
- Ki (α2A receptor; [5]): 0.195 µM

Structure (SMILES): CC(=O)C1=C(C)NC(C)=C(C(=O)NCCCN2CCC(c3ccccc3)(c3ccccc3)CC2)C1c1ccc([N+](=O)[O-])cc1 (stereo not shown) [Example 47, 5-Acetyl-1,4-dihydro-2,6-dimethyl-4-(4-nitrophenyl)-3-{N-[3-(4,4-diphenylpiperidin-1-yl)propyl]}carboxamidopyridine]
- pKi alpha-2 2b (α2B receptor; [6]): 6.36
- pKi alpha-1 1b [1, 7]: 6.58
- Ki (L-type calcium channel; [4]): 17.8 µM
- pKi alpha-2 2a (α2A receptor; [8]): 6.22

Structure (SMILES): CNC(=O)C1=C(C)NC(C)=C(C(=O)NCCCN2CCC(c3ccccc3)(c3ccccc3)CC2)C1c1ccc([N+](=O)[O-])cc1 (stereo not shown) [Example 38, 1,4-Dihydro-2,6-dimethyl-5-(N-methyl)carboxamido-4-(4-nitrophenyl)-3-{N-[3-(4,4-diphenylpiperidin-1-yl)propyl]}carboxamidopyridine]
- pKi alpha-2 2b (α2B receptor): 6.04
- pKi alpha-1 1b [1, 7]: 6.38
- Ki (L-type calcium channel; pKi Ca): 7.08 µM
- pKi alpha-2 2a (α2A receptor): 6.40

Structure (SMILES): CCC1=C(C(N)=O)C(c2ccc([N+](=O)[O-])cc2)C(C(=O)NC2CCN(CCc3c[nH]c4ccccc34)CC2)=CN1CC (stereo not shown) [Example 123, 5-Carboxamido-1,6-diethyl-1,4-dihydro-3-(N-{1-[2-(3-indolyl)ethyl]piperidin-4-yl}) carboxamide-4-(4-nitrophenyl)pyridine]
- pKi alpha-2 2b (α2B receptor; [9]): 6.87
- pKi alpha-1 1b [1, 10]: 8.01
- pKi Ca (L-type calcium channel; [11]): 4.53
- pKi alpha-2 2a (α2A receptor; [12]): 6.03

Structure (SMILES): CCC1=C(C(N)=O)C(c2ccc([N+](=O)[O-])cc2)C(C(=O)NCCCN2CCC(C(=O)OC)(c3ccccc3)CC2)=C(COCCN)N1 (stereo not shown) [Example 234, 2-((2-Aminoethyl)oxy)methyl-5-carboxamido-6-ethyl-1,4-dihydro-3-(N-(3-(4-methoxycarbonyl-4-phenylpiperidin-1-yl)propyl)) carboxamido-4-(4-nitro)phenylpyridine]
- Ki (α2B receptor; [3H]rauwolscine, human receptor, LM(tk-) cell lysates, mean, read-out: PKi alpha-2 2b (converted)): 4.9 µM
- Ki ([1]; cloned human receptor, LM(tk-) cell membranes, mean, read-out: PKi alpha-1 1b (converted)): 1.29 µM
- Ki (L-type calcium channel; [3H]nitrendipine, rat cardiac muscle membranes, mean, read-out: PKi Ca (converted)): 398 µM
- Ki (α2A receptor; [3H]rauwolscine, human receptor, LM(tk-) cell lysates, mean, read-out: PKi alpha-2 2a (converted)): 1.23 µM

Structure (SMILES): COC(=O)C1=C(C)NC(C)=C(C(=O)NCCCN2CCCCC2)C1c1ccc([N+](=O)[O-])cc1 (stereo not shown) [Example 51, 1,4-Dihydro-3-methoxycarbonyl-2,6-dimethyl-4-(4-nitrophenyl)-5-{N-[3-(piperidin-1-yl)propyl]}carboxamidopyridine hydrochloride etherate]
- Ki (α2B receptor; [2]): 0.513 µM
- Ki [1, 3]: 5.01 µM
- Ki (L-type calcium channel; [4]): 1000 µM
- Ki (α2A receptor; [5]): 0.447 µM

Structure (SMILES): CNC(=O)C1=C(C)NC(C)=C(C(=O)NCCCN2CCC(c3ccccc3)(c3ccccc3)CC2)C1c1ccc([N+](=O)[O-])cc1 (racemic) [(±)-119, 1,4-Dihydro-2,6-dimethyl-5-(N-Methyl) carboxamido-4-(4-nitrophenyl)-3-{N-[3-(4,4-diphenylpiperidin-1-yl)propyl]}carboxamidopyridine]
- pKi alpha-2 2b (α2B receptor): 6.04
- pKi alpha-1 1b [1, 10]: 6.38
- Ki (L-type calcium channel; pKi Ca): 7.41 µM
- pKi alpha-2 2a (α2A receptor): 6.4

Structure (SMILES): COC(=O)C1=C(C)NC(C)=C(C(=O)OCCCN2CCCCC2)C1c1ccc([N+](=O)[O-])cc1 (stereo not shown) [Example 50, 1,4-Dihydro-5-methoxycarbonyl-2,6-dimethyl-4-(4-nitrophenyl)-3-[3-(piperidin-1-yl)propoxy]carbonylpyridine hydrochloride etherate]
- Ki (α2B receptor; [2]): 2.75 µM
- Ki [1, 3]: 3.02 µM
- Ki (L-type calcium channel; [4]): 9.55 µM
- Ki (α2A receptor; [5]): 1.51 µM

Structure (SMILES): CCOC(=O)C1=C(CNCCCN2CCC(c3ccccc3)(c3ccccc3)CC2)NC(C)=C(C(=O)OC)C1c1ccc([N+](=O)[O-])cc1.Cl.O (stereo not shown) [Example 90, 3-Ethoxycarbonyl-1,4-dihydro-5-methoxycarbonyl-6-methyl-4-(4-nitro)phenyl-2-(N-(3-(4,4,-diphenylpiperidin-1-yl)propyl)amino)methylpyridine, hydrochloride hydrate]
- pKi alpha-2 2b (α2B receptor; [9]): 6.04
- pKi alpha-1 1b [1, 10]: 6.87
- pKi Ca (L-type calcium channel; [11]): 6.63
- pKi alpha-2 2a (α2A receptor; [12]): 6.13

Structure (SMILES): COC(=O)C1=C(C)NC2=C(C(=O)N(CCCN3CCC(c4ccccc4)(c4ccccc4)CC3)C2)C1c1ccc([N+](=O)[O-])cc1.Cl.O (stereo not shown) [Example 91, 1,4,7,7-Tetrahydro-3-methoxycarbonyl-6-methyl-5-oxo-4-(4-nitrophenyl)-6-(3-(4,4-diphenylpiperidin-1-yl)) propylpyrrolo[3,4-b]pyridine, hydrochloride hydrate]
- pKi alpha-2 2b (α2B receptor; [9]): 6.00
- pKi alpha-1 1b [1, 10]: 6.54
- pKi Ca (L-type calcium channel; [11]): 6.55
- pKi alpha-2 2a (α2A receptor; [12]): 6.06

Structure (SMILES): CCC1=C(C(=O)NCCCCN2CCC(c3ccccc3)CC2)C(c2ccc([N+](=O)[O-])cc2)C(C(N)=O)=C(C)N1.Cl.O (stereo not shown) [Example 77, 5-Carboxamido-2-ethyl-1,4-dihydro-6-methyl-4-(4-nitro)phenyl-3-(N-(4-(4-phenylpiperidin-1-yl)butyl))carboxamidopyridine hydrochloride hydrate]
- pKi alpha-2 2b (α2B receptor; [6]): 7.08
- pKi alpha-1 1b [1, 7]: 7.16
- pKi Ca (L-type calcium channel; [13]): 5.94
- pKi alpha-2 2a (α2A receptor; [8]): 6.95

Structure (SMILES): CCC1=C(C(=O)NC2CCN(Cc3ccccc3)CC2)C(c2ccc([N+](=O)[O-])cc2)C(C(=O)OC)=C(C)N1 (stereo not shown) [Example 75, 2-Ethyl-1,4-dihydro-5-methoxycarbonyl-6-methyl-4-(4-nitro)phenyl-3-(N-(N-phenylmethyl)piperidin-4-yl)carboxamidopyridine hydrochloride]
- Ki (α2B receptor; [2]): 3.09 µM
- Ki [1, 3]: 3.89 µM
- Ki (L-type calcium channel; [4]): 3.55 µM
- Ki (α2A receptor; [5]): 2.88 µM

Structure (SMILES): CCC1=C(C(=O)NCCCN2CCc3cc(OC)c(OC)cc3C2)C(c2ccc([N+](=O)[O-])cc2)C(C(N)=O)=C(C)N1.Cl.O (stereo not shown) [Example 76, 5-Carboxamido-2-ethyl-1,4-dihydro-3-(N-(3-(1,2,3,4-tetrahydro-6,7-dimethoxyisoquinolin-2-yl)propyl)) carboxamido-6-methyl-4-(4-nitro)phenylpyridine hydrochloride hydrate]
- pKi alpha-2 2b (α2B receptor; [6]): 5.64
- pKi alpha-1 1b [1, 7]: 5.88
- pKi Ca (L-type calcium channel; [13]): 5.49
- pKi alpha-2 2a (α2A receptor; [8]): 6.96
